# Like-named read-outs stand apart in the source and are kept apart here.
# Columns and labels:
# tumor xenograft = settings: cited from earlier work
# HLF = assay: Cell Titer-Glo proliferation assay, 72 h; format: cell-based; settings: Homo sapiens, HLF cells
# Procedure: (§1) Two sensitive epithelial cell lines Hep3B (A), JHH-7 (B), one insensitive epithelial cell line JHH-1(C) or one insensitive mesenchymal-like cell line HLF (D) were treated serial dilution of OSI-906 in the presence of Erlotinib for 72 hours, and sensitivity to treatment was measured by proliferation assays.
# (§2) Cell lines: Twenty-one HCC cell lines were purchased from either ATCC (HepG2, Hep3B, PLC/PRF/5, SK-Hepl, SNU-182, SNU-387, SNU-398, SNU-423, SNU-449, SNU-475) or Health Science Research Resources Bank (Japan) (HUH-1, HUH-6, HUH-7, HLE, HLF, JHH-1, JHH-2, JHH-4, JHH-5, JHH-6, JHH-7). All the cell lines were maintained in media as described by the vendors. For growth inhibition assays, cells were plated and allowed to proliferate for 24 hours. After 24 hours, cells had reached approximately 15% confluency, at which time serial dilutions of OSI-906 were added and the cells grown for a further 72 hours. Cell viability was assayed using the Cell Titer-Glo reagent (Promega Corp., Madison, Wis.).
# (§3) Proliferation Assay. Proliferation was assayed using Cell Titer Glo assays (Promega) and was determined 72 hours following dosing with OSI-906. The basis of the assay is a luminescent quantitation of ATP present in a cell culture plate well. In essence, the greater the number of viable cells in the well, the greater the level of ATP present. The assay utilizes a substrate that binds ATP to produce a luminescent signal, which can be read on a luminometer. Unless otherwise noted, the manufacturer's instructions were followed exactly. Briefly, on Day 1, cells were plated in 120 μl of 10% serum-containing growth media at a density of 4000 cells/well in a white polystyrene 96 well assay plate. On day 2, cells were treated with 15 μl of 10× concentration of the IGF-1R inhibitor (e.g. OSI-906) or DMSO alone for a final well volume of 150 μl. After 72 h incubation with the inhibitor, the cells were assayed. Results were calculated as a fraction of the DMSO controlled cells.
# Hep 3B = assay: Cell Titer-Glo proliferation assay, 72 h; format: cell-based; settings: Homo sapiens, Hep3B, Hep 3B cells
# Procedure: as §1, §2, §3
# JHH-1 = assay: Cell Titer-Glo proliferation assay, 72 h; format: cell-based; settings: Homo sapiens, JHH1, JHH-1 cells
# Procedure: as §1, §2, §3
# JHH-7 = assay: Cell Titer-Glo proliferation assay, 72 h; format: cell-based; settings: Homo sapiens, JHH7, JHH-7 cells
# Procedure: as §1, §2, §3
# [1] = tested on: HCC cell lines (HepG2, Hep3B, HUH-1, HUH-6, HUH-7, JHH-5, JHH-7); assay: Cell-titer glo proliferation assay, summary for the seven sensitive HCC cell lines; format: cell-based, human
# Procedure: as §2
# Proliferation Assay. Proliferation was assayed using Cell Titer Glo assays (Promega) and was determined 72 hours following dosing with OSI-906. The basis of the assay is a luminescent quantitation of ATP present in a cell culture plate well. […] The assay utilizes a substrate that binds ATP to produce a luminescent signal, which can be read on a luminometer. […] Results were calculated as a fraction of the DMSO controlled cells.
# To test cell sensitivity of HCC cells to the IGF-1R kinase inhibitor OSI-906, twenty-one HCC cell lines were treated with different concentration of OSI-906, and cell proliferation was measured by cell-titer glo assays (FIG. 1). […]
# [2] = tested on: HUH-1, JHH-5 and HepG2 cells; assay: Proliferation assay with OSI-906 after TGFβ treatment; format: cell-based, human; settings: cells grown with 10 ng/ml TGFβ for 10 days, HUH-1, JHH-5, HepG2
# Procedure: as §3
# Huh-1 = assay: Cell Titer-Glo proliferation assay, 72 h; format: cell-based; settings: Homo sapiens, Huh-1 cells
# Procedure: as §3, with “Cell lines: Twenty-one HCC cell lines were purchased from either ATCC (HepG2, Hep3B, PLC/PRF/5, SK-Hepl, SNU-182, SNU-387, SNU-398, SNU-423, SNU-449, SNU-475) or Health Science Research Resources Bank (Japan) (HUH-1, HUH-6, HUH-7, HLE, HLF, JHH-1, JHH-2, JHH-4, JHH-5, JHH-6, JHH-7). All the cell lines were maintained in media as described by the vendors. For growth inhibition assays, cells were plated and allowed to proliferate for 24 hours. After 24 hours, cells had reached approximately 15% confluency, at which time serial dilutions of OSI-906 were added and the cells grown for a further 72 hours. Cell viability was assayed using the Cell Titer-Glo reagent (Promega Corp., Madison, Wis.). Proliferation Assay.” for “Proliferation Assay.”
smiles,measurement,setting,value
"C[C@]1(O)C[C@@H](c2nc(-c3ccc4ccc(-c5ccccc5)nc4c3)c3c(N)nccn32)C1 [OSI-906, cis-3-[8-amino-1-(2-phenyl-quinolin-7-yl)-imidazo[1,5-a]pyrazin-3-yl]-1-methyl-cyclobutanol]",tumor growth inhibition (TGI),tumor xenograft; xenografts of tumor cells with high sensitivity to OSI-906 in culture in vitro,high pencentage tumor growth inhibition
same,tumor growth inhibition (TGI),tumor xenograft; xenografts of tumor cells with low sensitivity to OSI-906 in culture in vitro,only a low pencentage tumor growth inhibition
same,inhibition at 5 µM,"HLF; 5 μM OSI-906, 72 h",< 40%
same,EC50,HLF; 72 h OSI-906,> 10000 nM
same,inhibition at 5 µM,"Hep 3B; 5 μM OSI-906, 72 h",67%
same,EC50,Hep 3B; 72 h OSI-906,350 nM
same,inhibition at 5 µM,"JHH-1; 5 μM OSI-906, 72 h",< 40%
same,EC50,JHH-1; 72 h OSI-906,> 10000 nM
same,inhibition at 5 µM,"JHH-7; 5 μM OSI-906, 72 h",70%
same,EC50,JHH-7; 72 h OSI-906,940 nM
same,maximum inhibition,[1],> 40%
same,EC50,[1]; Homo sapiens,< 1000 nM
same,HCC cell sensitivity to OSI-906 after TGFβ treatment,[2],decreased
same,inhibition at 5 µM,"Huh-1; 5 μM OSI-906, 72 h",74%
same,EC50,Huh-1; 72 h OSI-906,180 nM
